Measured values: patent US12053506B2, “Romo1-derived antimicrobial peptides and variants thereof” (priority 2019, dated 2024)
No end group written: not given here.

Columns and labels:
[1] = system: Enterococcus faecalis (ATCC 19433); assay: Minimum bactericidal concentration (MBC) assay; assay type: cell-based
Method: (§1) The minimum bactericidal concentration assay was the same as the method used in Example 1.
(§2) Specifically, each type of bacteria was cultured in 3% (w/v) TSB (Tryptic Soy Broth) liquid medium at 37° C. and 200 rpm for 4 hours, and then further cultured under the same conditions for 3 hours to a concentration of 5×10^6 CFU/ml. Strain solutions were prepared by diluting each of the […] of 2×10^5 CFU/ml.
(§3) Then, the KU-5878 peptide at varying concentrations (0 μg/ml to 300 μg/ml) was dispensed into each well of a 96-well microplate, and 100 μl (1×10^5 CFU/ml) of each of the prepared strain solutions was added thereto, mixed therewith, and allowed to react with the peptide in an incubator at 37° C. for 1 hour.
(§4) In addition, 10 μl of each reaction solution of the peptide and the strain was plated on the TS agar plate at a constant size, and incubated in an incubator at 37° C. for 18 hours, and then colony formation on the plate was checked. The minimum bactericidal concentration was defined as the minimum concentration of the peptide at which no colony was formed, and the experimental results are shown in Table 2 below.

[2] = system: Enterococcus faecium (ATCC 19434); assay: Minimum bactericidal concentration (MBC) assay; assay type: cell-based
Method: as §1, §2, §3, §4

[3] = system: Escherichia coli (ATCC 25922); assay: Minimum bactericidal concentration (MBC) assay; assay type: cell-based
Method: as §1, §2, §3, §4

[4] = system: Klebsiella pneumoniae (ATCC 13883); assay: Minimum bactericidal concentration (MBC) assay; assay type: cell-based
Method: as §1, §2, §3, §4

[5] = system: Streptomyces sindenensis (ATCC 12392); assay: Minimum bactericidal concentration (MBC) assay; assay type: cell-based
Method: as §1, §2, §3, §4

[6] = system: Enterobacter aerogenes (ATCC 13048); assay: Minimum bactericidal concentration (MBC) assay; assay type: cell-based
Method: as §1, §2, §3, §4

[7] = system: Bacillus subtilis (ATCC 6633); assay: Minimum bactericidal concentration (MBC) assay; assay type: cell-based
Method: as §1, §2, §3, §4

[8] = system: Acinetobacter baumannii (ATCC 19606); assay: Minimum bactericidal concentration (MBC) assay; assay type: cell-based
Method: as §1, §2, §3, §4

[9] = system: Staphylococcus aureus (ATCC 29213); assay type: cell-based
Outline: (§5)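 Bacteria grown in 3% TSB at 37° C, diluted in 10 mM sodium phosphate/1% TSB to 1×10^5 CFU/ml in wells, exposed to peptides (0–300 μg/ml) for 1 h at 37° C. Mixtures plated on TS agar for 18 h at 37° C; MBC is the lowest concentration giving no colonies.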

[10] = system: Pseudomonas aeruginosa (ATCC 27853); assay type: cell-based
Outline: as §5

[11] = system: multidrug-resistant Pseudomonas aeruginosa; details: 4 h
Method: First, each of Pseudomonas aeruginosa (ATCC 27853) and Staphylococcus aureus (ATCC 29213) was cultured in 3% (w/v) TSB (Tryptic Soy Broth) liquid medium at 37° C. and 200 rpm for 4 hours, and then further cultured under the same conditions for 3 hours to a concentration of 5×10^6 CFU/ml. Strain solutions were prepared by diluting each of the further cultured strains with SP (sodium phosphate; 10 mM sodium phosphate, 1% TSB) buffer to a final concentration of 2×10^5 CFU/ml.
as §3, with “each” for “the KU-5878”
In addition, 30 g/L of TS (tryptic soy) and 15 g/L of agar were dissolved in distilled water and sterilized, and then 25 ml of the solution was poured onto a 100 mm round plate and solidified at room temperature for one day or more, thereby preparing a TS agar plate. 10 μl of each reaction solution of the peptide and the strain was plated on the TS agar plate at a constant size, and incubated in an incubator at 37° C. for 18 hours, and then colony formation on the plate was checked.
as §2, §3
In addition, 10 μl of each reaction solution of the peptide and the strain was plated on the TS agar plate at a constant size, and incubated in an incubator at 37° C. for 18 hours, and then colony formation on the plate was checked.
Meanwhile, the multidrug-resistant Pseudomonas aeruginosa, multidrug-resistant Acinetobacter and multidrug-resistant Klebsiella in Table 2 below were bacteria isolated from patients at Korea University Anam Hospital. […] Then, these bacteria were used in the experiment.

## KTMMQSGGTFGTFMAIGMGIR [KU-5878]
[1]
  MBC value (μg/ml), Enterococcus faecalis: 85 µg/mL
[2]
  MBC value (μg/ml), Enterococcus faecium: 85 µg/mL
[3]
  MBC value (μg/ml), Escherichia coli: 85 µg/mL
[4]
  MBC value (μg/ml), Klebsiella pneumoniae: 100 µg/mL
[5]
  MBC value (μg/ml), Streptomyces sindenensis: 95 µg/mL
[6]
  MBC value (μg/ml), Enterobacter aerogenes: 90 µg/mL
[7]
  MBC value (μg/ml), Bacillus subtilis: 90 µg/mL
[8]
  MBC value (μg/ml), Acinetobacter baumannii: 100 µg/mL
[9]; ATCC 29213
  MBC (μg/ml) value against Staphylococcus aureus: 100 µg/mL
[9]; ATCC 29213, 1 h
  MBC value (μg/ml) against Staphylococcus aureus: 100 µg/mL
[9]; Tables 11-15, no unit printed
  MBC Staphylococcus aureus: 100 µg/mL
[10]; ATCC 27853
  MBC (μg/ml) value against Pseudomonas aeruginosa: 100 µg/mL
[10]; ATCC 27853, 1 h
  MBC value (μg/ml) against Pseudomonas aeruginosa: 100 µg/mL
[10]; Tables 11-15, no unit printed
  MBC Pseudomonas aeruginosa: 100 µg/mL
[11]
  MBC value (μg/ml) against multidrug-resistant Pseudomonas aeruginosa: 110 µg/mL
